Reference: US20070141028A1, “Cancer gene therapeutic drug” (priority 2003, published 2007)

Tests used:
Type in all cases: cell-based
ovarian cancer cells HEY = assay: Influence of Fe and ALA on the proliferation inhibitory effect of adenovirus AdE3-1A1.3B (virus rate at IC50); conditions: IC50 after five days
Method: Ovarian cancer cells HEY were cultured in 12-well plate at a rate of 10,000 cells/well and FeSO4 was added at a concentration of 50 μg/ml, 5 μg/ml, 0.5 μg/ml or 0 μg/ml on the following day and the cytolysis type adenovirus AdE3-1A1.3B was added to all wells. The proliferation inhibitory effect of the adenovirus was evaluated by IC50 after five days.
(§1) Next, the ovarian cancer cell line HEY was cultured in a 12-well plate at a rate of 10,000 cells/well and 5-aminolevulinic acid (ALA) was added at a concentration of 50 μg/ml, 5 μg/ml, 0.5 μg/ml or 0 μg/ml on the following day and the cytolysis type adenovirus AdE3-1A1.3B was added to all wells. The proliferation inhibitory effect of the adenovirus was evaluated by IC50 after five days.
as §1, with “Furthermore,” for “Next,”, “FeSO4” for “5-aminolevulinic acid (ALA)”, “day. In addition,” for “day and”, “AdE3-1A1.3B and 50 μg/ml of 5-aminolevulinic acid (ALA) were added to each well. Only the adenovirus” for “AdE3-1A1.3B”, “a control.” for “all wells.”

cancer cells [1] = assay: β-gal assay of adenovirus infectivity
Excerpt: (§2) That is, ALA and Fe can enhance antitumor effect, because they can increase the infectivity of adenovirus to cancer cells and the amount of virus production within the cells.

cancer cells [2] = assay: PFU assay of adenovirus production
Excerpt: as §2

| Compound | proliferation inhibitory effect relative to only adenovirus administration (ovarian cancer cells HEY; 50 μg/ml ALA + AdE3-1A1.3B) | infectivity of adenovirus (cancer cells [1]) | amount of adenovirus production (cancer cells [2]) | proliferation inhibitory effect relative to only adenovirus administration (ovarian cancer cells HEY; 0.5 μg/ml FeSO4 + 50 μg/ml ALA + AdE3-1A1.3B) | proliferation inhibitory effect relative to only adenovirus administration (ovarian cancer cells HEY; 5 μg/ml FeSO4 + 50 μg/ml ALA + AdE3-1A1.3B) | proliferation inhibitory effect relative to only adenovirus administration (ovarian cancer cells HEY; 5 μg/ml FeSO4 + AdE3-1A1.3B) | proliferation inhibitory effect relative to only adenovirus administration (ovarian cancer cells HEY; 50 μg/ml FeSO4 + 50 μg/ml ALA + AdE3-1A1.3B) | proliferation inhibitory effect relative to only adenovirus administration (ovarian cancer cells HEY; 50 μg/ml FeSO4 + AdE3-1A1.3B) |
| --- | --- | --- | --- | --- | --- | --- | --- | --- |
| NCC(=O)CCC(=O)O [ALA, 5-aminolevulinic acid] | about 100 fold | increased infectivity of adenovirus | increased amount of adenovirus production |  |  |  |  |  |
| ferrous sulfate [FeSO4] |  |  |  | about 200 fold | about 700 fold | about 8 fold | about 1,000 fold | about 20 fold |
